# Target: T1, human CCR5 chemokine receptor (Homo sapiens, UniProt P51681)
# T1 construct: expressed in transfected cells; host or cells: NIH 3T3 cells (mouse fibroblasts), membrane preparation
# Assay: CCR5 membrane binding assay (inhibition of RANTES binding)
# Conditions: membranes from NIH 3T3 cells expressing human CCR5; 125I-RANTES
# Experimental: CCR5 Membrane Binding Assay:
# A high throughput screen utilizing a CCR5 membrane binding assay identifies inhibitors of RANTES binding. This assay utilizes membranes prepared from NIH 3T3 cells expressing the human CCR5 chemokine receptor which have the ability to bind to RANTES, a natural ligand for the receptor. Using a 96-well plate format, membrane preparations are incubated with ^125I-RANTES in the presence or absence of compound for one hour. Compounds are serially diluted over a wide range of 0.001 ug/ml to 1 ug/ml and tested in triplicates. Reaction cocktails are harvested through glass fiber filters, and washed thoroughly. Total counts for replicates are averaged and data reported as the concentration required to inhibit 50 percent of total ^125I-RANTES binding.
# T1 sequence (P51681 whole entry): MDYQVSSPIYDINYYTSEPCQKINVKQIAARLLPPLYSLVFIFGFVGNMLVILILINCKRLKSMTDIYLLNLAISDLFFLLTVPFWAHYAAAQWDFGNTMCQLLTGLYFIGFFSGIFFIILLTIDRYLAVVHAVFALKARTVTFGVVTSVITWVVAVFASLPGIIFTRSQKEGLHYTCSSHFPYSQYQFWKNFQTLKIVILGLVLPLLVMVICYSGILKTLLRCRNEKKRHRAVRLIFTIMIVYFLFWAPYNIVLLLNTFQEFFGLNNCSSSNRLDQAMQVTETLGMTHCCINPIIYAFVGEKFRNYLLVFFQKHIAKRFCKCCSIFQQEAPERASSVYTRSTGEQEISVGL
row,Ki [nM],Compound
1,0.5,"Cc1ccnc(C)c1C(=O)N1CCC(C)(N2CCC(C(Oc3ccccn3)c3ccc(Br)cc3)CC2)CC1 (single isomer, unassigned) [Example 4B]"
2,1,Cc1cccc(C)c1C(=O)N1CCC(C)(N2CCC(C(Oc3nccs3)c3ccc(Br)cc3)CC2)CC1 (stereo not shown) [Example 1J]
3,1.8,Cc1ccnc(C)c1C(=O)N1CCC(C)(N2CCC(C(Oc3ccccn3)c3ccc(C(F)(F)F)cc3)CC2)CC1 (stereo not shown) [Example 2G]
4,0.58,CC1(N2CCC(C(Oc3ccccn3)c3ccc(C(F)(F)F)cc3)CC2)CCN(C(=O)c2c(Cl)cncc2Cl)CC1 (stereo not shown) [Example 2JJ]
5,17.9,Cc1ccnc(C)c1C(=O)N1CCC(C)(N2CCC(C(Oc3cnccn3)c3ccc(S(C)(=O)=O)cc3)CC2)CC1 (stereo not shown) [Example 2S]
6,0.1,CCO/N=C(\c1ccc(Br)cc1)C1CCN(C2(C)CCN(C(=O)c3c(C)cc(-c4ccncc4)cc3C)CC2)CC1 [Example 5AB]
7,7.9,CO/N=C(\c1ccc(Br)cc1)C1CCN(C2(C)CCN(C(=O)c3c(C)ncnc3C)CC2)CC1 [Example 5L]
8,1.7,CCO/N=C(\c1ccc(Br)cc1)C1CCN(C2(C)CCN(C(=O)c3c(C)ncnc3C)CC2)CC1 [Example 5N]
9,0.8,CCO/N=C(\c1ccc(C(F)(F)F)cc1)C1CCN(C2(C)CCN(C(=O)c3c(Cl)cncc3Cl)CC2)CC1 [Example 6V]
10,588,CC1(N2CCC(Cc3ccc(Br)cc3)CC2)CCN(C(=O)c2cccc3ccccc23)CC1 [Example 9D]

# — patent US6387930B1, “Piperidine derivatives useful as CCR5 antagonists” (Schering Corporation, priority 1999, dated 2002)
